What was measured:
[1] = Pharmacokinetics of ART in rats in absence and presence of CHR; assay type: in vivo; details: ART in rat plasma, ART 5 mg/kg intramuscular on day 3, 1 h after 3-day oral CHR (5, 10, 20 mg/kg for 1:1, 1:2, 1:4) or CMC-Na, n = 5, mean ± SD
Description: Male SD rats (200-240 g) were supplied by Laboratory Animal Center of […] Medical University (Grade II, Certificate No. […] Animals were acclimatized in environmentally controlled breeding cages for at least 3 days before being used and were provided with standard laboratory food and water and were fasted for 12 h prior to the study. Water was freely available for rats during experiments. The experimental protocol was approved by the University Ethics Committee. All procedures involving animals were in accordance with the Regulations of the Experimental Animal Administration, State Committee of Science and Technology, People's Republic of China. 20 rats were randomly divided into 4 groups (n = 5). Group A was the control vehicle (ART alone) and group L, M, and H were the combination groups with CHR in three fixed ratios (1:1, 1:2, and 1:4). […] Group A was orally given by 0.5 % CMC-Na solution once per day for 3 days. On day 3, an intramuscular injection of ART (5 mg/kg) was subsequently administered 1 h after CHR or CMC-Na solution pre-exposure. […] Two hours later, animals took food and water freely to replenish. Plasma samples were separated by centrifugation 3500g for 10 min and 200 μL plasmas were stored at -20 °C until analysis. To 100 μL blank plasma, 50 μL ARM working solution (IS, 2 μg/mL), 100 μL methanol aqueous solution (50:50, v/v), and a standard solution or quality control (QC) solution were added. After vortex mixing for 1 min, the sample was extracted with 3 × 3 mL of methyl tert-butyl ether with gentle shaking for 10 min followed by centrifugation at 3500g for 10 min. […] The residue was reconstituted in 100 μL methanol and was filtered through a 0.22 μm nylon filter. Aliquots (10 μL) of the solution were injected onto the LC-MS analysis. Pharmacokinetic parameters were computed from plasma concentration-time profiles of ART by software DAS 3.0.

[2] = design: method as in PMID 17521300, PMID 18064444, PMID 9443848; details: cited from earlier work
P. berghei K173 strain = test: In vivo anti-malarial efficacy (chemo-suppressive study) in infected mice; details: for Parasitemia: placebo 22.15 ± 6.25
CYP2A [3] = test: in vitro; details: rat
CYP2A [4] = test: In vitro rat liver microsome experiment, CYP2A (probe CA)
CYP1A2 = biological target: T1, CYP1A2 (Rattus norvegicus, UniProt P04799); test: In vitro rat liver microsome experiment, CYP1A2 (probe PN); assay type: in vitro ADME
T1 sequence (P04799 1-513): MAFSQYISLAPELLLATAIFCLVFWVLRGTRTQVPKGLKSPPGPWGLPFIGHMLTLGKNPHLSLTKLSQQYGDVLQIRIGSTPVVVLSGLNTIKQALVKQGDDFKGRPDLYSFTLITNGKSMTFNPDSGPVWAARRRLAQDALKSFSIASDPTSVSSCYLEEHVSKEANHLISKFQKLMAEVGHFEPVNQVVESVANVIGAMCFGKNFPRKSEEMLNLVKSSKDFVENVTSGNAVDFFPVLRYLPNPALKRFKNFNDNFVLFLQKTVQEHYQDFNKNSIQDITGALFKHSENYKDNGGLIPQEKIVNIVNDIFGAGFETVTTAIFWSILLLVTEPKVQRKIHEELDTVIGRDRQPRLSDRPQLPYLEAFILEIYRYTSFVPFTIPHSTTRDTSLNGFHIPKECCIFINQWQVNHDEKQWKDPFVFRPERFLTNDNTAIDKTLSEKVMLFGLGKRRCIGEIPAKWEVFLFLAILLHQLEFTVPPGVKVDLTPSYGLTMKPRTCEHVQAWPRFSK

CYP2D6 = test: In vitro rat liver microsome experiment, CYP2D6 (probe DM); assay type: in vitro ADME
Description: (§1) Total reaction volume was complemented to 200 μL by PBS. After pre-incubating for 3 min at 37 °C, the reaction was initiated by the addition of NADPH solution (incubation time was optimized as 45 min for PN; 60 min for CA, 15 min for OPZ; 20 min for DM; 90 min for CLZ; 15 min for MDZ). 200 μL ice acetonitrile was added as stop reagent. After a vortex for 3 min and centrifugation for 10 min at 14,000g, an aliquot of 20 μL supernatant was injected into the HPLC system at an interval of 10 min. The amount of methanol in diluted concentrations (<1 %) had no effect on liver microsomes. All the testing groups were in three replicates (n = 3). Under the optimized condition, Vmax, Michaelis constant (Km), enzyme activity (E%), and IC50 values were obtained.

CYP2E1 = CYP2E1 (Rattus norvegicus, UniProt P05182); test: In vitro rat liver microsome experiment, CYP2E1 (probe CLZ); assay type: in vitro ADME
CYP3A = test: In vitro rat liver microsome experiment, CYP3A (probe MDZ); assay type: in vitro ADME
Description: as §1
Incubation systems including 1.0 mg/mL RLM, PN (12.5, 25.0, and 50.0 μM), NPDPH, and CHR (0, 2, 4, 8 μM) for 1A2 or 0.5 mg/mL RLM, MDZ (2.5, 5.0, 10.0 μM), NPDPH, and CHR (0, 2, 4, 8 μM) for CYP3A were employed as above (n = 3). A serial of Lineweaver–Burk plots by 1/[S] versus 1/V were prepared individually under different concentrations of CHR. The location of intersection point for the linear lines decided the type of inhibition. Namely, if the point lied in Y axis it was competitive inhibition and if it lied in X axis it was non-competitive inhibition. Finally, if the linear lines were paralleled, it was uncompetitive inhibition. Concomitantly, inhibition constant (Ki) was calculated when a second plotting was given by intercepts of the four lines versus [I] (inhibitor concentration).

CYP2C19 [5] = test: In vitro rat liver microsome experiment, CYP2C19 (probe OPZ)
CYP2C19 [6] = test: in vitro; details: rat
[7] = substrate: CCOc1ccc(NC(C)=O)cc1; test: cells, lysate or membranes named; details: other: probe substrate in rat liver microsomes; 37.0 °C
[8] = probe substrate in rat liver microsomes
[9] = Lineweaver–Burk plots, rat liver microsomes
[10] = moderate: 1 < IC50 < 10 μM, criteria of ref 21
[11] = rat liver microsomes, CHR 0–50 μM, P > 0.05

Sequence of CYP2E1 (P05182 whole entry): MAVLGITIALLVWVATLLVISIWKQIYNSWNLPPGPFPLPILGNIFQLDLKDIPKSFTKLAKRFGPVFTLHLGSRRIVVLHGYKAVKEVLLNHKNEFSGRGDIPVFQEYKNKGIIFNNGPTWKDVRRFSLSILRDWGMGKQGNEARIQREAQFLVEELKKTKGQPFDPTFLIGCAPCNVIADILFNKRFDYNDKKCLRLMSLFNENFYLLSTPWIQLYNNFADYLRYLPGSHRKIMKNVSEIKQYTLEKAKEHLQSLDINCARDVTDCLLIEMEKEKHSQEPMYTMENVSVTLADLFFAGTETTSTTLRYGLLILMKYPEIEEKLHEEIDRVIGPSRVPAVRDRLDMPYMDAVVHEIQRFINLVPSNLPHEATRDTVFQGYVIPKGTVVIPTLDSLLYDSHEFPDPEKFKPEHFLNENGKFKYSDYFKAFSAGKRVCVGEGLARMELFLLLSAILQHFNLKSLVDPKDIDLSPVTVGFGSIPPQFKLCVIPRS

C[C@@H]1CC[C@H]2[C@@H](C)C(=O)O[C@@H]3O[C@@]4(C)CC[C@@H]1[C@]32OO4 [ART, Artemisinin]
AUC0–t [1]: 390.58 ± 32.46 µg·h/mL
Cmax ([1]; male): 51.6 ± 9.47 µg/mL
half-life ([1]; male): 3.62 ± 0.86 h
clearance ([1]; male, read-out: CLz (converted)): 0.217 mL/min/kg
oral bioavailability [2]: 8–10%
Parasitemia (P. berghei K173 strain; Kunming mice, ART 5 mg/kg alone or with CHR 5, 10, 20 mg/kg (1:1, 1:2, 1:4), 3 days, 24 h after last dosing, n = 10): 13.95 ± 7.89 %
decrease of parasitaemia (%) compared with placebo (P. berghei K173 strain; mice, P < 0.05): 1.59 folds
Inhibition (P. berghei K173 strain; relative to placebo, Kunming mice, ART 5 mg/kg alone or with CHR 5, 10, 20 mg/kg, n = 10): 37.06%

O=c1ccc2ccccc2o1 [CA, coumarin, reference compound]
Km at 60 min (CYP2A [3]): 8.9 µM
Vmax (CYP2A [4]; [8]): 0.12 nmol/min/mg proteins

COc1cc(-c2oc3cc(OC)c(OC)c(O)c3c(=O)c2OC)ccc1O [CHR, chrysosplenetin]
Ki (CYP1A2; 1.0 mg/mL RLM, PN 12.5, 25.0, 50.0 μM, CHR 0, 2, 4, 8 μM, second plot of Lineweaver–Burk intercepts): 4.07 µM
inhibition type (CYP1A2; [9]): noncompetitive
inhibitor strength class (CYP1A2; [10]): moderate inhibitor
IC50 (CYP1A2; rat liver microsomes, PN 25 μM, GraphPad Prism 5.0): 4.61 µM
impact on enzyme activity (CYP2D6; [11]): no impact
IC50 (CYP2E1; rat liver microsomes, CLZ 15 μM, GraphPad Prism 5.0): 28.2 µM
inhibitor strength class (CYP2E1; weak: IC50 >10 μM, criteria of ref 21): weak inhibitor
inhibition type (CYP3A; [9]): uncompetitive
inhibitor strength class (CYP3A; [10]): moderate inhibitor
IC50 at 15 min (CYP3A; probe midazolam (MDZ) 5 μM, rat liver microsomes, MDZ 5 μM, GraphPad Prism 5.0): 3.38 µM
Ki at 15 min (CYP3A; rat, rat liver microsomes, probe midazolam (MDZ) 2.5, 0.5 mg/mL RLM, MDZ 2.5, 5.0, 10.0 μM, CHR 0, 2, 4, 8 μM, second plot of Lineweaver–Burk intercepts): 3.71 µM
impact on enzyme activity (CYP2A [4]; [11]): no impact
inhibitor strength class (CYP2C19 [5]; [10]): moderate inhibitor
IC50 at 15 min (CYP2C19 [5]; rat, microsomes): 6.23 µM
Parasitemia (P. berghei K173 strain; CHR alone 5 mg/kg (CHR-L), Kunming mice, n = 10): 19.74 ± 13.33%
Parasitemia (P. berghei K173 strain; CHR alone 10 mg/kg (CHR-M), Kunming mice, n = 10): 17.19 ± 5.45%
Parasitemia (P. berghei K173 strain; CHR alone 20 mg/kg (CHR-H), Kunming mice, n = 10): 18.32 ± 8.86%

COc1ccc2c(c1)[C@]13CCCC[C@@H]1[C@H](C2)N(C)CC3 [DM, dextromethophan]
Km (CYP2D6; [8]): 28.9 µM
Vmax (CYP2D6; [8]): 0.20 nmol/min/mg proteins

Cc1ncc2n1-c1ccc(Cl)cc1C(c1ccccc1F)=NC2 [MDZ, Midazolam, reference compound]
Km at 15 min (CYP3A; [8]): 7.88 µM
Vmax (CYP3A; [8]): 0.81 nmol/min/mg proteins

COc1ccc2[nH]c([S+]([O-])Cc3ncc(C)c(OC)c3C)nc2c1 (centres unmarked) [OPZ, omeprazole, reference compound]
Km at 15 min (CYP2C19 [6]): 24.1 µM
Vmax (CYP2C19 [5]; [8]): 0.58 nmol/min/mg proteins

B1: CYP1A2 (Rattus norvegicus) (protein)
chain: T1 sequence (P04799 1-513)
Km [7]: 30.88 µM
Vmax [7]: 0.14 nmol/min/mg proteins

— PMC4632357, “Impact of chrysosplenetin on the pharmacokinetics and anti-malarial efficacy of artemisinin against Plasmodium berghei as well as in vitro CYP450 enzymatic activities in rat liver microsome” (Malaria Journal, 2015)
